System: Human Coronavirus 229E
Assay: Cytokines in lung tissue of mice infected with human coronavirus 229E (ELISA)
Type: in vivo
Details: 4 days
Method: Seventy Institute of Cancer Research Mouse (ICR) mice were randomly divided into seven groups based on body weight: a normal control group, a model control group, a chloroquine phosphate control group, and four Genipin-1-β-D-gentiobioside dosage groups (75 mg/ml, 37.5 mg/ml, 18.75 mg/ml, and 9.375 mg/ml), with ten mice in each group. Except for the normal control group, the other mice were lightly anesthetized with isoflurane and infected intranasally with 50 μl of 100 TCID50 coronavirus strain 229E or OC43. The infection was repeated every other day. Nebulization administration began on the same day as the first infection, with a flow rate of 7.5 L/min. The four Genipin-1-β-D-gentiobioside dosage groups were nebulized for 25 minutes each. The chloroquine phosphate control group was administered 0.2 ml/10 g body weight by gavage once daily for four consecutive days. The normal control group and the model control group were nebulized with distilled water for 25 minutes under the same conditions. On the fifth day, the mice were dissected, and the following indicators were measured:
(2) The left lung lobes were used for viral nucleic acid detection, while the right lung lobes were used for the quantification of inflammatory factors: IL-6, IL-10, and TNF-α.
The inhalation administration samples mentioned above were used. The weight of the lung tissue was measured, and an appropriate amount of physiological saline was added to make a 10% tissue homogenate. After homogenizing the tissue using a high-throughput tissue grinder, it was centrifuged at 4° C. and 3000 rpm for 10 minutes using a low-temperature high-speed centrifuge. The supernatant was then aspirated, aliquotted, and stored at −80° C. for future use, avoiding repeated freeze-thaw cycles. For detection, the absorbance at 450 nm was measured using a microplate reader according to the kit instructions.

For COC(=O)C1=CO[C@@H](O[C@@H]2O[C@H](CO[C@@H]3O[C@H](CO)[C@@H](O)[C@H](O)[C@H]3O)[C@@H](O)[C@H](O)[C@H]2O)[C@@H]2C(CO)=CC[C@H]12 [Genipin-1-β-D-gentiobioside], the “Cytokine Levels in Lung Tissue IL-6” value (9.375 mg/ml inhalation) was 98.70 ± 4.56 pg/mL, the “Cytokine Levels in Lung Tissue IL-10” value (9.375 mg/ml inhalation) was 331.34 ± 28.00 pg/mL and the “Cytokine Levels in Lung Tissue TNF-α” value (9.375 mg/ml inhalation) was 511.16 ± 80.14 pg/mL. For the same compound, the “Cytokine Levels in Lung Tissue IL-6” value (18.75 mg/ml inhalation) was 99.51 ± 5.24 pg/mL, the “Cytokine Levels in Lung Tissue IL-10” value (18.75 mg/ml inhalation) was 330.61 ± 25.07 pg/mL and the “Cytokine Levels in Lung Tissue TNF-α” value (18.75 mg/ml inhalation) was 503.00 ± 56.50 pg/mL. The “Cytokine Levels in Lung Tissue IL-6” value (37.5 mg/ml inhalation) was 98.23 ± 3.42 pg/mL, the “Cytokine Levels in Lung Tissue IL-10” value (37.5 mg/ml inhalation) was 334.12 ± 25.59 pg/mL and the “Cytokine Levels in Lung Tissue TNF-α” value (37.5 mg/ml inhalation) was 513.28 ± 58.74 pg/mL. For the same compound, the “Cytokine Levels in Lung Tissue IL-6” value (75 mg/ml inhalation) was 98.31 ± 2.78 pg/mL, the “Cytokine Levels in Lung Tissue IL-10” value (75 mg/ml inhalation) was 341.12 ± 29.07 pg/mL and the “Cytokine Levels in Lung Tissue TNF-α” value (75 mg/ml inhalation) was 511.81 ± 51.82 pg/mL.

— patent US20250195553A1, “Use of Genipin-1-B-D-Gentiobioside in Preparation of Drug” (Guizhou Bailing Group Pharmaceutical Co., Ltd., priority 2023, published 2025)
